The source of these data is patent publication US7750155B2, “Pyrazinyl hydroxyacrylamide compounds having an inhibitory effect on the activity of histone deacetylase” (Astellas Pharma Inc., priority 2006, dated 2010).

Where a name gives a salt, the structure may show the parent alone.

In data set [1] the test system is T1, human histone deacetylase partially purified from human T cell leukemia Jurkat cells.
T1 construct: The human histone deacetylase was partially purified from human T cell leukemia Jurkat cells
Briefly: Test 1: Determination of histone deacetylase inhibitor activity ([3H]acetyl histone deacetylation). The format is biochemical. Particulars: partially purified human HDAC from Jurkat cells, [3H]acetyl histone substrate, 25° C., 30 minutes; read-out: Test 1: HDAC inhibitory activity IC50. The procedure: Test 1: Determination of Histone Deacetylase Inhibitor Activity
The partial purification of human histone deacetylase, the preparation of [^3H] acetyl histones, and the assay for histone deacetylase activity were performed basically according to the method as proposed by Yoshida et al. as follows.
Partial Purification of Human Histone Deacetylase
The human histone deacetylase was partially purified from human T cell leukemia Jurkat cells. Jurkat cells (5×10^8 cells) were suspended in 40 mL of the HDA buffer consisting of 15 mM potassium phosphate, pH 7.5, 5% glycerol and 0.2 mM EDTA. After homogenization, nuclei were collected by centrifugation (35,000×g, 10 min) and homogenized in 20 mL of the same buffer supplemented with 1 M (NH4)2SO4. The viscous homogenate was sonicated and clarified by centrifugation (35,000×g, 10 min), and the deacetylase was precipitated by raising the concentration of (NH4)2SO4 to 3.5 M. The precipitated protein was dissolved in 10 mL of the HDA buffer and dialyzed against 4 liters of the same buffer. The dialyzate was then loaded onto a DEAE-cellulose (Whatman DE52) column (25×85 mm) equilibrated with the same buffer and eluted with 300 mL of a linear gradient (0-0.6 M) of NaCl. A single peak of histone deacetylase activity appeared between 0.3 and 0.4 M NaCl.
Preparation of [^3H] Acetyl Histone
To obtain [^3H] acetyl-labeled histone as the substrate for the histone deacetylase assay, 1×10^8 cells of Jurkat in 20 mL of RPMI-1640 medium (supplemented with 10% FBS, penicillin (50 units/mL) and streptomycin (50 μg/mL)) were incubated with 300 MBq [^3H] sodium acetate in the presence of 5 mM sodium butyrate for 30 minutes in 5% CO2-95% air atmosphere at 37° C. in a […] flask, harvested into a centrifuge tube (50 mL), collected by centrifugation at 1000 rpm for 10 minutes, and washed once with phosphate-buffered saline. The washed cells were suspended in 15 mL of ice-cold lysis buffer (10 mM Tris-HCl, 50 mM sodium bisulfite, 1% Triton X-100, 10 mM MgCl2, 8.6% sucrose, pH 6.5). After Dounce homogenization (30 stroke), the nuclei were collected by centrifugation at 1000 rpm for 10 minutes, washed 3 times with 15 mL of the lysis buffer, and once with 15 mL of ice-cooled washing buffer (10 mM Tris-HCl, 13 mM EDTA, pH 7.4) successively. The pellet was suspended in 6 mL of ice-cooled water using a mixer, and 68 μl of H2SO4 was added to the suspension to give a concentration of 0.4 N. After incubation at 4° C. for 1 hour, the suspension was centrifuged for 5 minutes at 15,000 rpm, and the supernatant was taken and mixed with 60 mL of acetone. After overnight incubation at −20° C., the coagulated material was collected by microcentrifugation, air-dried, and stored at −80° C.
Assay for Histone Deacetylase Activity
For the standard assay, 10 μl of [^3H] acetyl-labeled histones were added to 90 μl of the enzyme fraction, and the mixture was incubated at 25° C. for 30 minutes. The reaction was stopped by addition of 10 μl of HCl. The released [^3H] acetic acid was extracted with 1 mL of ethyl acetate, and 0.9 mL of the solvent layer was taken into 10 mL of toluene scintillation solution for determination of radioactivity.

Data set [2] deals with splenic cells of Lewis rats (T lymphocyte blastogenesis). Briefly: Test 2: T-cell growth inhibitor activity (T lymphocyte blastogenesis, Concanavalin A, AlamarBlue). The format is cell-based. Particulars: Lewis rat splenic cells, Concanavalin A 1 μg/mL, 72 hours, read-out: Test 2: T-cell growth inhibitory activity IC50. Here is the method: Test 2: Determination of T-Cell Growth Inhibitor Activity
The T lymphocyte blastogenesis test was performed in microtiter plates with each well containing 1.5×10^5 splenic cells of Lewis rats in 0.1 mL RPMI-1640 medium supplemented with 10% fetal bovine serum (FBS), […] 2-mercaptoethanol, penicilln (100 units/mL) and streptomycin (100 μg/mL), to which Concanavalin A (1 μg/mL) was added. The cells were incubated at 37° C. in a humidified atmosphere of 5% CO2 for 72 hours. After the culture period, suppressive activities of the test compounds in T lymphocyte blastogenesis were quantified by AlamarBlue (trademark) Assay. The test samples were dissolved in DMSO and further diluted with RPMI-1640 medium and added to the culture. The activities of the test compounds were expressed as IC50.

Data set [3] deals with blood corpuscles (platelet, white blood corpuscle). Briefly: Test 4: Measurement of change rate of blood corpuscles. It is filed as in vivo. Particulars: 4 mg/kg oral once a day for 14 days, male LEW rats, blood 24 hr after last administration. The procedure:
Test 4: Measurement of Change Rate of Blood Corpuscles Experimental drugs were oral administered to rats (male LEW) once a day for continuous 14 days. The blood sample contained heparin and EDTA were collected at 24 hr after last administration, and the number of differential blood corpuscles were measured by auto-hemocytometer (Sysmex).

As for `Cl.Cl.O=C(/C=C/c1cnc(N[C@@H]2CCCN(CCc3cccc(F)c3)C2)cn1)NO` [Example 6, (2E)-3-[5-({(3R)-1-[2-(3-fluorophenyl)ethyl]-3-piperidinyl}amino)-2-pyrazinyl]-N-hydroxyacrylamide dihydrochloride], the concentration for half-maximal inhibition (IC50) in data set [1] worked out at 1.7 nM. For the same compound, in data set [2], the IC50 was 0.65 nM. Further, in data set [3], the “decrease rate (%) platelet” value turned out to be 24.3% and the “decrease rate (%) white blood corpuscle” value worked out at 72.2%.

In the case of `Cl.Cl.O=C(/C=C/c1cnc(N[C@@H]2CCN(CCc3ccc(F)c(F)c3)C2)cn1)NO` [Example 5, (2E)-3-[5-({(3R)-1-[2-(3,4-difluorophenyl)ethyl]-3-pyrrolidinyl}amino)-2-pyrazinyl]-N-hydroxyacrylamide dihydrochloride], the half-inhibitory concentration (IC50) in data set [1] stood at 3.3 nM; in data set [2], 0.93 nM. Moreover, the “decrease rate (%) platelet” value in data set [3] is 9.4%. Moreover, the “decrease rate (%) white blood corpuscle” value in data set [3] is on record as 40.3%.

With `COc1ccc(CCN2CC[C@@H](Nc3cnc(/C=C/C(=O)NO)cn3)C2)cc1.Cl.Cl` [Example 18, (2E)-N-hydroxy-3-[5-({(3R)-1-[2-(4-methoxyphenyl)ethyl]-3-pyrrolidinyl}amino)-2-pyrazinyl]acrylamide dihydrochloride], in data set [1], the half-inhibitory concentration (IC50) was 2.2 nM. In data set [2], the IC50 amounted to 2.2 nM. Also, in data set [3], the “decrease rate (%) platelet” value was found to be 3.4% and the “decrease rate (%) white blood corpuscle” value is 31.7%.

On to `Cl.Cl.O=C(/C=C/c1cnc(N[C@@H]2CCCN(CCC3CCCCC3)C2)cn1)NO` [Example 25, (2E)-3-(5-{[(3R)-1-(2-cyclohexylethyl)-3-piperidinyl]amino}-2-pyrazinyl)-N-hydroxyacrylamide dihydrochloride], for which the IC50 turned out to be 1.8 nM in data set [1] and 2.2 nM in data set [2]. Besides, the “decrease rate (%) platelet” value in data set [3] was 6.2%. For the same compound, the “decrease rate (%) white blood corpuscle” value in data set [3] came to 63.1%.

With `Cl.Cl.O=C(/C=C/c1cnc(N[C@@H]2CCN(CCc3ccc(Cl)cc3)C2)cn1)NO` [Example 23, (2E)-3-[5-({(3R)-1-[2-(4-chlorophenyl)ethyl]-3-pyrrolidinyl}amino)-2-pyrazinyl]-N-hydroxyacrylamide dihydrochloride], in data set [1], the IC50 was found to be 2 nM. Besides, the IC50 in data set [2] was found to be 1.7 nM. In data set [3], the “decrease rate (%) platelet” value worked out at 18.6% and the “decrease rate (%) white blood corpuscle” value was found to be 64.6%.

As for `Cl.Cl.O=C(/C=C/c1cnc(N[C@@H]2CCN(CCc3cccc(F)c3)C2)cn1)NO` [Example 1, (2E)-3-[5-({(3R)-1-[2-(3-fluorophenyl)ethyl]-3-pyrrolidinyl}amino)-2-pyrazinyl]-N-hydroxyacrylamide dihydrochloride], the 50% inhibitory concentration (IC50) in data set [1] is 2.3 nM. Also, in data set [2], the concentration for half-maximal inhibition (IC50) came to 2.4 nM. In addition, in data set [3], the “decrease rate (%) platelet” value is 18.3% and the “decrease rate (%) white blood corpuscle” value is 43.7%.

Regarding `Cl.Cl.O=C(/C=C/c1cnc(N[C@@H]2CCN(CCc3ccc(Br)cc3)C2)cn1)NO` [Example 19, (2E)-3-[5-({(3R)-1-[2-(4-bromophenyl)ethyl]-3-pyrrolidinyl}amino)-2-pyrazinyl]-N-hydroxyacrylamide dihydrochloride], the concentration for half-maximal inhibition (IC50) in data set [1] worked out at 1.6 nM. In addition, the half-maximal inhibitory concentration (IC50) in data set [2] turned out to be 1.3 nM. In data set [3], the “decrease rate (%) platelet” value is recorded as 14.2% and the “decrease rate (%) white blood corpuscle” value is listed as 38.1%.

On to `O=C(/C=C/c1cnc(N[C@@H]2CCN(CCC3CCCC3)C2)cn1)NO` [Example 20, (2E)-3-(5-{[(3R)-1-(2-cyclopentylethyl)-3-pyrrolidinyl]amino}-2-pyrazinyl)-N-hydroxyacrylamide dihydrochloride], for which the IC50 in data set [1] was determined as 0.79 nM; in data set [2], 2.1 nM.
